Data reported in article PMC12316285, “The porphyran degradation system is complete, phylogenetically and geographically diverse across the gut microbiota of East Asian populations” (PLOS One, 2025).

What was measured:
BpGH2C (Bacple_01706) = molecular target: T1, BpGH2C (Bacple_01706) (Phocaeicola plebeius, UniProt B5CYA9); experiment: 1H NMR after sequential enzyme incubation; format: biochemical; conditions: substrate made in situ by BpS1_[…] then BpGH29
T1 construct: signal peptide removed; pET-28 or pFO4, HisTrap purified
T1 sequence (B5CYA9 1-1086): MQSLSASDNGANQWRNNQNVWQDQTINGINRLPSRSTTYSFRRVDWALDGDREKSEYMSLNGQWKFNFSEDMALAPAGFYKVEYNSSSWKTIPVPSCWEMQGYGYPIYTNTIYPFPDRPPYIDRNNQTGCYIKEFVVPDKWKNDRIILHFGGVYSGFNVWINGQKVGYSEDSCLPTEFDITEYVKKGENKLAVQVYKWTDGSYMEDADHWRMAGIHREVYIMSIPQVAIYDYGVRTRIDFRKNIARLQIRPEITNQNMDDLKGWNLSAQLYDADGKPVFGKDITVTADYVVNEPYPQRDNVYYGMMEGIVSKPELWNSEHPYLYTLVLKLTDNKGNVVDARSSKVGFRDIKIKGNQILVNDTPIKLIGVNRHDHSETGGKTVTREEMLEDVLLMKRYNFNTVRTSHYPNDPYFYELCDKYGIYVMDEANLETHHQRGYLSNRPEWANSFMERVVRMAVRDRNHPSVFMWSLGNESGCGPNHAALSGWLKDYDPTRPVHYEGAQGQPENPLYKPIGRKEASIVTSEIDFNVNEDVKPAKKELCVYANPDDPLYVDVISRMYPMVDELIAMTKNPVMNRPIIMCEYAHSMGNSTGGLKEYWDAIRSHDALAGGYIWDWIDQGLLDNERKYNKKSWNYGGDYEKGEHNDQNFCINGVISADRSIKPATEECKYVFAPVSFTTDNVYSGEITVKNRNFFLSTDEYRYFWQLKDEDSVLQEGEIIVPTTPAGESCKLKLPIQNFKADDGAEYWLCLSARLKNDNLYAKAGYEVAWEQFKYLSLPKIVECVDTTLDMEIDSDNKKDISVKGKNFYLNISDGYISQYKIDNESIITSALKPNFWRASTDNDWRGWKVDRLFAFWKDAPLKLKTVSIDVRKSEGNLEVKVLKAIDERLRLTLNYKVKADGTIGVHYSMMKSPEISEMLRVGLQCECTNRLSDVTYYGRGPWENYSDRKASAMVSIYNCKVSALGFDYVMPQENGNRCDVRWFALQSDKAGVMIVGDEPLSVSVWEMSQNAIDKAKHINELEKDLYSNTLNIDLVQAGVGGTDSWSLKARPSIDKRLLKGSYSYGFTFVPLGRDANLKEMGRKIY

BpGH16C (Bacple_01703) = molecular target: T2, BpGH16C (Bacple_01703) (Phocaeicola plebeius, UniProt B5CYA6); experiment: X-ray crystal structure, […] Å, soaked crystal; format: binding; conditions: inactive mutant; soaked with tetrasaccharide, only a trisaccharide modelled (subsites -1 to -3; Figure 2 legend says disaccharide); pH 7.5
T2 construct: signal peptide removed; pET-28 or pFO4, HisTrap purified; three independent molecules in asymmetric unit of complex
T2 sequence (B5CYA6 entry or part of it E178L): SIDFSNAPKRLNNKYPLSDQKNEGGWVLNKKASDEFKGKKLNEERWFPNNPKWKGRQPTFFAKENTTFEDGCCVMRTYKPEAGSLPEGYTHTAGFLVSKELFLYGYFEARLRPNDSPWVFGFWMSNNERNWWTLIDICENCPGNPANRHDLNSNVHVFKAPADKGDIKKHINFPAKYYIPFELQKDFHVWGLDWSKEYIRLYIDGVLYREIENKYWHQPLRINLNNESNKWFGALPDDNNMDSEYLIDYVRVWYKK

BpS1_11 (Bacple_01701) = molecular target: T3, BpS1_11 (Bacple_01701) (Phocaeicola plebeius, UniProt B5CYA4); experiment: 1H NMR of products; format: biochemical; conditions: desulfation of the non-reducing-end L-galactose 6-sulfate
T3 construct: signal peptide removed; pET-28 or pFO4, HisTrap purified; formylglycine sulfatase (Ser83 is formylglycine in mature enzyme)
T3 sequence (B5CYA4 entry or part of it): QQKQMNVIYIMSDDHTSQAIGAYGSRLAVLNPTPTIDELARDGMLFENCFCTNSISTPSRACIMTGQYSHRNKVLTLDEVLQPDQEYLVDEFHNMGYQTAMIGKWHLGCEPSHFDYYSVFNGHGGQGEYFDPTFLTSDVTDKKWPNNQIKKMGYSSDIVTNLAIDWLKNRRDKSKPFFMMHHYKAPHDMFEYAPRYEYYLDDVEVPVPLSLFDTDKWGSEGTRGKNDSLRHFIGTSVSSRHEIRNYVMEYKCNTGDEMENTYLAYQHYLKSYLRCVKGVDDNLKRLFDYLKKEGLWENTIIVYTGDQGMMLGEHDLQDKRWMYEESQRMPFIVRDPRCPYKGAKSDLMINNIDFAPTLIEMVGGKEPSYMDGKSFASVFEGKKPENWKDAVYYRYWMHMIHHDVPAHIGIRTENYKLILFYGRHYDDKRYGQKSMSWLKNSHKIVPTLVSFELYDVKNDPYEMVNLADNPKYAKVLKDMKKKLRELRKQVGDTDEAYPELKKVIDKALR

O=S(=O)(O)OC[C@@H]1O[C@@H](O[C@H]2[C@@H](O)[C@@H](CO)OC(O)[C@@H]2O)[C@@H](O)[C@H](O)[C@@H]1O[C@@H]1O[C@H](CO)[C@H](O)[C@H](O)[C@H]1O (stereo partly drawn) [trisaccharide with non-methylated D-galactose at the non-reducing end]
1H NMR after sequential enzyme incubation (BpGH2C (Bacple_01706)): methylated or non-methylated D-galactose residue located at the non-reducing end of the trisaccharide was cleaved

O=S(=O)(O)OC[C@@H]1O[C@@H](O[C@H]2[C@@H](O)[C@@H](CO)O[C@@H](O[C@H]3[C@@H](O)[C@H](O)[C@H](O[C@H]4[C@@H](O)[C@@H](CO)OC(O)[C@@H]4O)O[C@H]3COS(=O)(=O)O)[C@@H]2O)[C@@H](O)[C@H](O)[C@@H]1O (stereo partly drawn) [L-α-6O-sulfate-Gal-(1 → 3)-D-β-Gal-(1 → 4)-L-α-6O-sulfate-Gal-(1 → 3)-D-a/β-Gal]
X-ray crystal structure, 1.8 Å, soaked crystal (BpGH16C (Bacple_01703)): we crystallized the E145L inactive mutant with the tetrasaccharide | 1H NMR of products (BpS1_11 (Bacple_01701)): After desulfation of the tetra-saccharides
